The test system of experiment [1] is APEC O78. Nature of the experiment: Efficacy of peptides in chickens (oral, twice a day). The class given is in vivo. The following applies: for Reduction of APEC colonization in cecum: 7 dpi. As to the method:
Peptides were administered through orally twice a day from day 1 to day 7 either at 50 mg/kg or 100 mg/kg dose. On day 2, chickens were infected orally with Rif^γ APEC O78 (1-2×10^9 CFU/chicken). At day 9, chickens were euthanized, necropsied and cecum and internal organs (lung, liver, heart, and kidney) were processed for quantification of APEC load. The body weight of chickens was measured at day 9.
Efficacy of peptides in chickens: Animal study was approved by The Ohio State University Institutional Animal Care and Use Committee (IACUC, protocol #2010 A00000149). Chickens were euthanized using CO2 following American Veterinary Medical Association (AVMA) guidelines. Standard animal husbandry practices were followed throughout the experiment. Feed and water were provided ad libitum. The efficacy of peptides (P1, P2, and P3) were assessed at 50 mg/kg and 100 mg/kg doses in two successive experiments using commercial broiler chickens (n=10/group) (Cobb & Ross; Case Farms Ohio Hatchery, Strasburg, OH). […] Briefly, peptides dissolved in water [5 mg (50 mg/kg) or 10 mg (100 mg/kg) in 100 μL] were administered orally twice a day from day 1 (one day before APEC infection) today 7 (5 days post-infection; dpi). On day 2, chickens were infected orally with rifampicin resistant (Rif) APEC O78(27) (1-2×10^9 CFU/chicken). At 7 dpi (day 9), chickens were euthanized, necropsied and cecum and internal organs (lung, liver, heart, and kidney) were assessed for APEC load by plating on MacConkey agar plates containing 50 μg/mL rifampicin. The body weight of chickens was measured at the day of necropsy (day 9). The positive (PC; infected but not treated) and negative (NC; non-infected and non-treated) control chickens were included in both experiments. The statistical significance (P<0.05) of treatment on reduction of APEC load and effect on body weight was calculated using one-way ANOVA followed by Tukey's post-hoc test. […] Bacteria were grown in LB media and MICs were determined as above against respective peptides.

In experiment [2] the test system is intracellular APEC O78 in HD11 cells. Nature of the experiment: Intracellular survival of APEC in HD11 cells (gentamicin protection assay). The experiment is classed as cell-based, chicken. As to the method:
Effect of peptides on intracellular survival of APEC in HD11 cells: To determine the efficacy of peptides (P1, P2, and P3) against intracellular APEC, gentamicin protection assay was conducted in HD 11 (chicken macrophage) cells as described previously. The cells were cultured in Iscove's Modified Dulbecco's Media (IMDM) supplemented with 10% fetal bovine serum (FBS), 2 mM L-glutamine and 2% penicillin-streptomycin (P/S) solution and maintained at 37° C. incubator with 5% C02. Cells (approximately 10^4 cells/well) were seeded in a 96-well cell culture plate in 100 μL culture media and incubated for 36 h prior to using for the assay. Following incubation, the cells were replenished with 100 μL of fresh cell culture media with no FBS and antibiotic and incubated until infection (2 h). For the infection, the overnight grown APEC O78 was subcultured to mid-logarithmic phase, centrifuged, washed twice with PBS, adjusted to 1×10^7 CFU/mL. One-hundred microliters of the APEC suspension (MOI: 100) was added to each well of the 96-well plate and incubated for 1 h to allow the invasion. The cells were washed twice and treated with gentamicin (150 μg/mL) to kill the extracellular APEC. The cells were treated with peptides at 12 mM, 15 mM, and 18 mM concentrations. Infected but not treated, infected and DMSO-treated, and non-infected and not treated cells were used as controls. Three independent experiments were conducted.

Experiment [3] relates to APEC O78. Nature of the experiment: Efficacy in wax moth larvae model. The experiment is classed as in vivo, Galleria mellonella. As to the method: Efficacy and toxicity of peptides in wax moth (Galleria mellonella) larvae model: To measure the efficacy and toxicity of peptides (P1, P2, and P3) in vivo, wax moth larvae model was used as described previously. Wax moth larvae were obtained from Vanderhorst Wholesale, Inc. (Saint Marys, OH) and were kept at 37° C. overnight before use. Healthy larvae (creamy color with no blackening) were selected and kept in sterile petri dishes before inoculation. For toxicity evaluation, larvae (n=10/group) were injected with 25.5 mM of peptides (dissolved in sterile water containing DMSO) through last left pro-leg using PB600-1 repeating dispenser (Hamilton) attached to insulin syringe (ReliOn; 31 gauze, 8 mm needle length). The injected larvae were incubated for 72 h at 37° C., and mortality was recorded every 12 h.
For efficacy evaluation, larvae (n=15/group) were pretreated (as above) and infected with rifampicin resistant (Rif) APEC O78 (2.3×10^4 CFU/larva) through last right pro-leg within 30 mins of treatment. The larvae were incubated at 37° C. for 72 h and mortality was recorded as above. […] The statistical significance (P<0.05) of treatments on survival of larvae and APEC load inside larvae was calculated using log-rank test and one-way ANOVA followed by Tukey's post-hoc test, respectively.

For a further experiment, the system named is ST. Nature of the experiment: Alanine scanning SAR, anti-Salmonella activity. The class given is cell-based, Salmonella enterica. As to the method: Relative Importance was calculated using formula: (percent growth in analogue-percent growth in original peptide)/(percent growth in DMSO-treated control-percent growth in original peptide)×100.
Structural-activity relationship (SAR) study: Structure activity relationship analysis was used to better determine the important amino acids required for Anti-Salmonella activity of P1 and P2. Alanine scanning libraries of P1 and P2 were synthesized from Genscript (Table 28; (www.genscript.com/alanine_scanning.html) and tested for inhibitory activity as described above. Relative importance [(percent growth in analogue-percent growth in original peptide)/(percent growth in DMSO-treated control-percent growth in original peptide)×100] was used to identify crucial amino acids of each amino acid residue of the peptide. Two independent experiments were conducted to ensure accuracy.

No end group written: not given here.

On to PDENK [Peptide P2, PDENK], for which the “Reduction of APEC colonization in cecum” value in the experiment with APEC O78 [1] (50 mg/kg dose) worked out at 0.9 logs. For the same substance, in the experiment on APEC O78 [1] (100 mg/kg dose), the “Number of chickens positive for APEC in internal organs” value is on record as “reduced the number of chickens positive for APEC” and the “Reduction of APEC colonization in cecum” value came out at 1.3 logs. Moreover, the “Intracellular APEC (log CFU/mL)” value in experiment [2] (12 mM, untreated 3.75 ± 0.10) worked out at 3.33 ± 0.03 log CFU/mL. Further, the “Intracellular APEC (log CFU/mL)” value in experiment [2] (15 mM) is “No intracellular APEC was recovered”. In addition, the “Intracellular APEC (log CFU/mL)” value in experiment [2] (15 mM, listed as P-2) is given as 0.00 ± 0.00 log CFU/mL. Further, in experiment [2] (18 mM), the “Intracellular APEC (log CFU/mL)” value was 0.00 ± 0.00 log CFU/mL. Also, the “APEC load in the larvae” value with APEC O78 [3] (72 h post-infection, untreated 7.4±3.1 log CFU/larva) was “no APEC was isolated”. For the same substance, in the experiment on APEC O78 [3] (pretreated with 25.5 mM, 72 h, untreated 73.34%), the Larval mortality worked out at 26.67%. In the experiment with ST, the “Relative importance of Asparagine in P2” value is 35%, the “Relative importance of Aspartate in P2” value stood at 82%, the “Relative importance of Proline in P2” value was “zero relative importance” and the “Relative importance of glutamic acid in P2” value is 77%. For the same substance, in the experiment on ST, the “Relative importance of lysine in P2” value is on record as 32%.

For the origin of these results see patent US20240181000A1, “LGG-DERIVED PEPTIDES AND METHODS OF USE THEREOF” (Ohio State Innovation Foundation, priority 2021, published 2024).
